Reference: US10100010B1, “4-methoxy pyrrole derivatives or salts thereof and pharmaceutical composition comprising the same” (Daewoong Pharmaceutical Co., Ltd., priority 2015, dated 2018)
Structures can show the parent of a compound that is named as a salt. Where two headings read alike, the source gives them in different places.

How the values were obtained:
Assay type in all cases: cell-based
M1 = biological target: T1, M1 (Homo sapiens, UniProt P11229); assay: GPCR Calcium Flux assay (FLIPR tetra, Eurofins), M1; conditions: for IC50: 8 concentrations 10 to 0.0006 uM, read-out: 50% inhibitory concentration (IC50) M1; for inhibition at 10 µM: read-out: inhibition rate (%) M1
T1 sequence (P11229 1-460): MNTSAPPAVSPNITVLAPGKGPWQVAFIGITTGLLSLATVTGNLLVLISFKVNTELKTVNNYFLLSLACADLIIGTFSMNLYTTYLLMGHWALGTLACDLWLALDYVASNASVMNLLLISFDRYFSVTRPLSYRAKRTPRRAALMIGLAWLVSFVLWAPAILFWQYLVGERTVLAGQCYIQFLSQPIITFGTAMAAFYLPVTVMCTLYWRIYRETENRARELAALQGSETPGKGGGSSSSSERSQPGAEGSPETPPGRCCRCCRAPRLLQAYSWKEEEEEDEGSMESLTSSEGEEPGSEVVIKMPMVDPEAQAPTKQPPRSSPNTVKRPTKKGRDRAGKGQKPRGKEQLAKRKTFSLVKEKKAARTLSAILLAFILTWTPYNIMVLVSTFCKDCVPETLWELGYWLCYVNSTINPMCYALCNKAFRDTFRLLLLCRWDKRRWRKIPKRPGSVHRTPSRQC
Method: (§1) In order to confirm whether the compounds prepared in the above Examples act as an agonist or antagonist against GPCR Target, Calcium Flux assay was performed in an assay plate in which the compounds prepared in the Examples, vehicle controls, and reference compounds were added, using a Fluorometric imaging plate reader (FLIPR tetra) equipment.
(§2) Calcium Flux assay was evaluated by entrusting the GPCR profiler assay in Safety panel assays with Eurofins. By using the Fluo-8AM calcium dye, excitation was measured at a wavelength in the range of 470 to 495 nm and Emission was measured at a wavelength in the range of 515-575 nm. GPCR Assay Buffer for Calcium Flux assay was prepared by adding 20 mM of HEPES and 2.5 mM of Probenecid to Hanks Balanced Salt Solution (HBSS) to have pH 7.4. The Compounds of Examples for evaluation of the GPCR were diluted with DMSO at a concentration of 10 mM to make a stock and then prepared by diluting in the GPCR Assay Buffer at the concentration equivalent to three times the final concentration. First, for the evaluation of GPCRs, the inhibitory activity of the compounds of the Examples was evaluated at a single concentration of 10 uM, and then the respective selected targets were four fold-diluted from 10 uM to the low side to calculate 50% inhibitory concentration (IC50), prepared at the total 8 concentrations of 10, 2.5, 0.62, 0.15, 0.04, 0.01, 0.0024, 0.0006 uM, and Calcium Flux assay for GPCR was conducted. In order to evaluate the agonist and antagonist, % inhibition rate against GPCR activity before and after treatment of the compounds and the inhibitory activity of the compounds of the Examples were determined.
(§3) As a result, when the efficacy of […] and acetylcholine of the compounds prepared in the Examples was 100%, the inhibition rate (%) at a single concentration of 10 uM was evaluated and shown in Table 8.

M2 = biological target: T2, M2 (Homo sapiens, UniProt P08172); assay: GPCR Calcium Flux assay (FLIPR tetra, Eurofins), M2; conditions: for inhibition at 10 µM: read-out: inhibition rate (%) M2
T2 sequence (P08172 1-466): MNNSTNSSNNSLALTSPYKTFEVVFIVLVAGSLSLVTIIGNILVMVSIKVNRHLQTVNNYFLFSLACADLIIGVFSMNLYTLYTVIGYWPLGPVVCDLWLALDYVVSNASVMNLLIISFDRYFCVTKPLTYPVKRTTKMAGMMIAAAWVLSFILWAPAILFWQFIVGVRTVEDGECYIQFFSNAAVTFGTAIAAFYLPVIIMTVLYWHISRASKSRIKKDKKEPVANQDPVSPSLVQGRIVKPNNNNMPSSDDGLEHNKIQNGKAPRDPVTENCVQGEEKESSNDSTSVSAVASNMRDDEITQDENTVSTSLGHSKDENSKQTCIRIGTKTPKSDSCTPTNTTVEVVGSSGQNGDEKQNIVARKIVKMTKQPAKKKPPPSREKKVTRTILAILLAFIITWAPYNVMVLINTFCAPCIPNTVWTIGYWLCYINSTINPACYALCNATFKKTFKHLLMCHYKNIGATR
Method: as §1, §2, §3

5-HT2A = 5-HT2A (Homo sapiens, UniProt P28223); assay: GPCR Calcium Flux assay (FLIPR tetra, Eurofins), 5-HT2A; conditions: for IC50: 8 concentrations 10 to 0.0006 uM, read-out: 50% inhibitory concentration (IC50) 5-HT2A; for inhibition at 10 µM: read-out: inhibition rate (%) 5-HT2A
5-HT2A, sequence (P28223 whole entry): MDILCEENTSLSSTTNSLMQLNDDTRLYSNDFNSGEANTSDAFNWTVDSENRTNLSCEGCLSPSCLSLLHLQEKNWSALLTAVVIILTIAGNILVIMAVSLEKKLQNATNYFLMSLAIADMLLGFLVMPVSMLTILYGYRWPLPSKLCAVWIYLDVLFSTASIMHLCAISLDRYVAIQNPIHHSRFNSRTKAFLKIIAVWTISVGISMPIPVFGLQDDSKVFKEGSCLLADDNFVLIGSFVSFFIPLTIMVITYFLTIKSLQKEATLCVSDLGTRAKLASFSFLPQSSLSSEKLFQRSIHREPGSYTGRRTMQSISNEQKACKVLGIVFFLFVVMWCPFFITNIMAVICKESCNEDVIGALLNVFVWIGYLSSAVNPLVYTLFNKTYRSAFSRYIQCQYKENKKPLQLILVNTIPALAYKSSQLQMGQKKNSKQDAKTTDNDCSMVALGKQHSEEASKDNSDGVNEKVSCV
Method: as §1, §2, §3

CNCc1cn(S(=O)(=O)c2cccc(C)c2)c(-c2c(F)cccc2F)c1OC [Example 16, 1-(5-(2,6-difluorophenyl)-1-((3-methylphenyl)sulfonyl)-4-methoxy-1H-pyrrol-3-yl)-N-methylmethanamine fumarate]
IC50 (M1): 1900 nM | inhibition at 10 µM (M1): 95.4% | inhibition at 10 µM (M2): 69.7% | IC50 (5-HT2A): 58 nM | inhibition at 10 µM (5-HT2A): 102%

CNCc1cn(S(=O)(=O)c2cccc(C(F)(F)F)c2)c(-c2c(F)cccc2F)c1OC [Example 15, 1-(5-(2,6-difluorophenyl)-1-((3-(trifluoromethyl)phenyl)sulfonyl)-4-methoxy-1H-pyrrol-3-yl)-N-methylmethanamine hydrochloride]
inhibition at 10 µM (M1; single concentration of 10 uM): 87.1% | inhibition at 10 µM (M2; single concentration of 10 uM): 62.1% | inhibition at 10 µM (5-HT2A; single concentration of 10 uM): 30.1%

CNCc1cn(S(=O)(=O)c2cccc(F)c2)c(-c2c(F)cccc2Cl)c1OC [Example 20, 1-(5-(2-fluoro-6-chlorophenyl)-1-((3-fluorophenyl)sulfonyl)-4-methoxy-1H-pyrrol-3-yl)-N-methylmethanamine hydrochloride]
inhibition at 10 µM (M1; single concentration of 10 uM): 103% | inhibition at 10 µM (M2; single concentration of 10 uM): 90.5% | inhibition at 10 µM (5-HT2A; single concentration of 10 uM): 99.2%

CNCc1cn(S(=O)(=O)c2cccc(C(F)(F)F)c2)c(-c2c(F)cc(F)cc2F)c1OC [Example 24, 1-(1-((3-trifluoromethylphenyl)sulfonyl)-4-methoxy-5-(2,4,6-trifluorophenyl)-1H-pyrrol-3-yl)-N-methylmethanamine hydrochloride]
IC50 (M1): > 1000 nM | inhibition at 10 µM (M1; single concentration of 10 uM): 93.4% | IC50 (M2; 8 concentrations 10 to 0.0006 uM, read-out: 50% inhibitory concentration (IC50) M2): > 10000 nM | inhibition at 10 µM (M2; single concentration of 10 uM): 22% | IC50 (5-HT2A): 62 nM | inhibition at 10 µM (5-HT2A; single concentration of 10 uM): 62.2%

CNCc1cn(S(=O)(=O)c2cccc(Cl)c2)c(-c2ccccc2F)c1OC [Example 1, 1-(5-(2-fluorophenyl)-4-methoxy-1-((3-chlorophenyl)sulfonyl)-1H-pyrrol-3-yl)-N-methylmethanamine hydrochloride]
IC50 (M1): 1700 nM | inhibition at 10 µM (M1; single concentration of 10 uM): 99.6% | inhibition at 10 µM (M2; single concentration of 10 uM): 66.5% | IC50 (5-HT2A): 250 nM | inhibition at 10 µM (5-HT2A; single concentration of 10 uM): 96.4%

CNCc1cn(S(=O)(=O)c2cccc(OC)c2)c(-c2cc(F)ccc2F)c1OC [Example 33, 1-(5-(2,5-difluorophenyl)-1-((3-methoxyphenyl)sulfonyl)-4-methoxy-1H-pyrrol-3-yl)-N-methylmethanamine hydrochloride]
inhibition at 10 µM (M1; single concentration of 10 uM): 81.5% | inhibition at 10 µM (M2; single concentration of 10 uM): 29% | IC50 (5-HT2A): 1700 nM | inhibition at 10 µM (5-HT2A; single concentration of 10 uM): 96.7%

CNCc1cn(S(=O)(=O)c2cccc(C(F)(F)F)c2)c(-c2cc(F)ccc2F)c1OC [Example 32, 1-(5-(2,5-difluorophenyl)-1-((3-trifluoromethylphenyl)sulfonyl)-4-methoxy-1H-pyrrol-3-yl)-N-methylmethanamine hydrochloride]
inhibition at 10 µM (M1; single concentration of 10 uM): 52.6% | inhibition at 10 µM (M2; single concentration of 10 uM): 10.8% | inhibition at 10 µM (5-HT2A; single concentration of 10 uM): 10.6%

CNCc1cn(S(=O)(=O)c2cccc(C)c2)c(-c2ccc(F)cc2F)c1OC [Example 10, 1-(5-(2,4-difluorophenyl)-1-((3-methylphenyl)sulfonyl)-4-methoxy-1H-pyrrol-3-yl)-N-methylmethanamine hydrochloride]
IC50 (M1): 1300 nM | inhibition at 10 µM (M1; single concentration of 10 uM): 96.2% | inhibition at 10 µM (M2; single concentration of 10 uM): 77.6% | IC50 (5-HT2A): 360 nM | inhibition at 10 µM (5-HT2A; single concentration of 10 uM): 101%

CNCc1cn(S(=O)(=O)c2cccc(OC)c2)c(-c2c(F)cccc2F)c1OC [Example 17, 1-(5-(2,6-difluorophenyl)-1-((3-methoxyphenyl)sulfonyl)-4-methoxy-1H-pyrrol-3-yl)-N-methylmethanamine hydrochloride]
inhibition at 10 µM (M1; single concentration of 10 uM): 85.2% | inhibition at 10 µM (M2; single concentration of 10 uM): 60.1% | IC50 (5-HT2A): 2200 nM | inhibition at 10 µM (5-HT2A; single concentration of 10 uM): 102%

CNCc1cn(S(=O)(=O)c2cccc(OC)c2)c(-c2c(F)ccc(F)c2F)c1OC [Example 30, 1-(1-((3-methoxyphenyl)sulfonyl)-4-methoxy-5-(2,3,6-trifluorophenyl)-1H-pyrrol-3-yl)-N-methylmethanamine hydrochloride]
IC50 (M1): 1400 nM | inhibition at 10 µM (M1; single concentration of 10 uM): 94.3% | inhibition at 10 µM (M2; single concentration of 10 uM): 43% | inhibition at 10 µM (5-HT2A; single concentration of 10 uM): 100%

CNCc1cn(S(=O)(=O)c2ccc(F)c(Cl)c2)c(-c2c(F)cccc2F)c1OC [Example 18, 1-(5-(2,6-difluorophenyl)-1-((3-chloro-4-fluorophenyl)sulfonyl)-4-methoxy-1H-pyrrol-3-yl)-N-methylmethanamine hydrochloride]
IC50 (M1): ~2100 nM | inhibition at 10 µM (M1; single concentration of 10 uM): 91.2% | inhibition at 10 µM (M2; single concentration of 10 uM): 42.1% | IC50 (5-HT2A): 210 nM | inhibition at 10 µM (5-HT2A; single concentration of 10 uM): 98.1%

CNCc1cn(S(=O)(=O)c2cccc(OC)c2)c(-c2ccccc2F)c1OC [Example 3, 1-(5-(2-fluorophenyl)-4-methoxy-1-((3-methoxyphenyl)sulfonyl)-1H-pyrrol-3-yl)-N-methylmethanamine hydrochloride]
inhibition at 10 µM (M1; single concentration of 10 uM): 87% | inhibition at 10 µM (M2; single concentration of 10 uM): 76.9% | IC50 (5-HT2A): 180 nM | inhibition at 10 µM (5-HT2A; single concentration of 10 uM): 94%

CNCc1cn(S(=O)(=O)c2cccc(OC)c2)c(-c2ccc(F)cc2F)c1OC [Example 11, 1-(5-(2,4-difluorophenyl)-1-((3-methoxyphenyl)sulfonyl)-4-methoxy-1H-pyrrol-3-yl)-N-methylmethanamine hydrochloride]
IC50 (M1): 1800 nM | inhibition at 10 µM (M1; single concentration of 10 uM): 97.2% | inhibition at 10 µM (M2; single concentration of 10 uM): 79.4% | IC50 (5-HT2A): 200 nM | inhibition at 10 µM (5-HT2A; single concentration of 10 uM): 102%

CNCc1cn(S(=O)(=O)c2cccc(Cl)c2)c(-c2ccc(Cl)cc2F)c1OC [Example 6, 1-(5-(2-fluoro-4-chlorophenyl)-4-methoxy-1-((3-chlorophenyl)sulfonyl)-1H-pyrrol-3-yl)-N-methylmethanamine hydrochloride]
IC50 (M1): ~3000 nM | inhibition at 10 µM (M1; single concentration of 10 uM): 93.1% | inhibition at 10 µM (M2; single concentration of 10 uM): 15.1% | IC50 (5-HT2A): 160 nM | inhibition at 10 µM (5-HT2A; single concentration of 10 uM): 102%

CNCc1cn(S(=O)(=O)c2cccc(OC(F)F)c2)c(-c2ccc(F)cc2F)c1OC [Example 12, 1-(5-(2,4-difluorophenyl)-1-((3-difluoromethoxyphenyl)sulfonyl)-4-methoxy-1H-pyrrol-3-yl)-N-methylmethanamine hydrochloride]
inhibition at 10 µM (M1; single concentration of 10 uM): 93.1% | inhibition at 10 µM (M2; single concentration of 10 uM): 28.7% | inhibition at 10 µM (5-HT2A; single concentration of 10 uM): 101%

CNCc1cn(S(=O)(=O)c2cccc(Cl)c2)c(-c2c(F)ccc(F)c2F)c1OC [Example 28, 1-(1-((3-chlorophenyl)sulfonyl)-4-methoxy-5-(2,3,6-trifluorophenyl)-1H-pyrrol-3-yl)-N-methylmethanamine hydrochloride]
IC50 (M1): 550 nM | inhibition at 10 µM (M1; single concentration of 10 uM): 99.4% | inhibition at 10 µM (M2; single concentration of 10 uM): 61.9% | IC50 (5-HT2A): 67 nM | inhibition at 10 µM (5-HT2A; single concentration of 10 uM): 97.6%

CNCc1cn(S(=O)(=O)c2cccc(Cl)c2)c(-c2c(F)cccc2F)c1OC [Example 14, 1-(5-(2,6-difluorophenyl)-1-((3-chlorophenyl)sulfonyl)-4-methoxy-1H-pyrrol-3-yl)-N-methylmethanamine hydrochloride]
inhibition at 10 µM (M1; single concentration of 10 uM): 94.9% | inhibition at 10 µM (M2; single concentration of 10 uM): 48.1% | IC50 (5-HT2A): 210 nM | inhibition at 10 µM (5-HT2A; single concentration of 10 uM): 99.9%
